How the values were obtained:
Format in all cases: cell-based
[1] = system: Human umbilical-vein endothelial cells; assay: Angiogenesis: tube-like structure formation on PET; conditions: PET covalently modified with peptide, 18 hours
Experimental: (§1) The polymer used in this study is poly(ethylene terephthalate) (PET). The polymers were first treated in order to create —COOH (carboxyl) functions on the PET surfaces from —OH (hydroxyl) functions. Next, the PET-COOH samples were immersed in a solution of dimethylaminopropyl-3-ethylcarbodiimide hydrochloride (EDC, 0.2 M)+N-hydroxysuccinimide (NHS, 0.1 M) in 2-(N-morpholino)-ethanesulfonic acid (MES) buffer (0.1 M in MilliQ water) and the samples were rinsed in MilliQ water (50 mL for 30 min). The same protocol was used for all the polymers containing —OH (hydroxyl) functions on their extreme surface. Finally, the covalent immobilization of the peptides was achieved by using a solution of peptides/1×PBS (C=10^−3 M) incubated for 18 hours at room temperature. After grafting, the materials were rinsed in MilliQ water (100 ml) for 1 week.

[2] = system: Human umbilical-vein endothelial cells; assay: Endothelialization: adherent junctions (CD31) of endothelial cells on PET; conditions: PET covalently modified with peptide vs native PET, 36 hours
Experimental: as §1
An increase in the area of the adherent junctions (CD31) was observed after 36 hours of culture on the covalently modified PET (FIG. 13).

[3] = system: mouse mesenchymal pre-osteoblastic cells (MC3T3-E1); assay: Osteogenic differentiation of osteoblast progenitors (optical profilometry of extracellular matrix, Runx2 Q-PCR, Osteopontin immunostaining); conditions: apatite ceramics or type-I collagen sponge coupled with peptide vs native type-I collagen sponge, 48 hours
Experimental: The surface profiler system is a non-contact optical profiler that measures a wide range of surface heights. The vertical scanning interferometry mode allows for the measurement of rough surfaces and steps of up to several micrometers. This mode was used in order to measure the thickness of the extracellular matrix produced by the cells. First, after 24 h of culture, the cells were fixed with paraformaldehyde in PBS (4%) for 30 minutes at 4° C. and the samples were dehydrated in increasing concentrations of ethanol (30, 70, 80, 90, 95 and 100%) and critical-point dried. To evaluate the extent of the newly synthesized extracellular matrix, a spatula was used to scratch the surface of the materials. The samples were then metallized for 10 sec with gold or titanium before being analyzed.
The cells were first fixed for 20 min with 4% paraformaldehyde/PBS at 4° C. […]
Total RNA was extracted by using the RNeasy total RNA kit (Qiagen®) according to the manufacturer's instructions. […] Data were analyzed with the iCycler IQ™® software and compared by the ΔΔCt method. […]
The effect of the GFR-binding compounds as described herein (SEQ ID NO: 33) on the differentiation of osteoblast progenitors was evaluated. […]
An increase in the Runx2 gene expression after 24 hours of culture (FIG. 11) was observed by using Quantitative Real Time Polymerase Chain Reaction as described in the Methods section.

For “CVPTEESNITMQIMRIKPHQGQHIGEMSFL (GFR-binding peptide) [SEQ ID NO: 39]”, the “formation of tube-like structures” value [1] was “formation of tube-like structures was observed”.
For “CVPTEERSVKVAKVRIKPHQGQHKEVQV (GFR-binding peptide) [SEQ ID NO: 38]”, the “area of the adherent junctions (CD31)” value [2] was “increase”.
“WWFWGASSAVSQELSAISMLYLGGGLKNYQDMQHN (GFR-binding peptide) [SEQ ID NO: 33]” was tested, and the “production of extracellular matrix proteins such as Osteopontin (OPN)” value [3] was “extensive amounts”.
